Reference: the CheMixHub viscosity set

Assay: xn = mol fraction of the nth substance listed

ClC(Cl)(Cl)Cl + CCCCCCO
viscosity [mPa·s], 101 kPa
Settings | 298.15 K | 308.15 K | 318.15 K
x2 = 0.0092 | 0.909 | 0.786 | 0.691
x2 = 0.0374 | 0.941 | 0.817 | 0.71
x2 = 0.07 | 0.961 | – | –
x2 = 0.0912 | 1 | 0.865 | 0.745
x2 = 0.14 | 1.058 | – | –
x2 = 0.1545 | 1.11 | 0.938 | 0.806
x2 = 0.2095 | 1.197 | 1.008 | 0.861
x2 = 0.21 | 1.167 | – | –
x2 = 0.27 | 1.299 | – | –
x2 = 0.293 | 1.368 | 1.127 | 0.942
x2 = 0.3554 | 1.533 | 1.255 | 1.046
x2 = 0.496 | 1.965 | 1.564 | 1.273
x2 = 0.5 | 1.931 | – | –
x2 = 0.6 | 2.317 | – | –
x2 = 0.6252 | 2.531 | 1.957 | 1.548
x2 = 0.69 | 2.737 | – | –
x2 = 0.7459 | 3.091 | 2.344 | 1.814
x2 = 0.86 | 3.57 | – | –
x2 = 0.8652 | 3.83 | 2.863 | 2.202

CCCC(C)=O + C1CCCCC1
viscosity [mPa·s]
Settings | 293.15 K | 298.15 K | 303.15 K
101.32 kPa, x2 = 0.1524 | – | – | 0.474
101.32 kPa, x2 = 0.2942 | – | – | 0.496
101.32 kPa, x2 = 0.3752 | – | – | 0.507
101.32 kPa, x2 = 0.4326 | – | – | 0.517
101.32 kPa, x2 = 0.5075 | – | – | 0.532
101.32 kPa, x2 = 0.5951 | – | – | 0.555
101.32 kPa, x2 = 0.7377 | – | – | 0.607
101.32 kPa, x2 = 0.8891 | – | – | 0.695
101.33 kPa, x2 = 0.0483 | 0.5 | 0.473 | 0.447
101.33 kPa, x2 = 0.0981 | 0.506 | 0.477 | 0.452
101.33 kPa, x2 = 0.1932 | 0.516 | 0.486 | 0.458
101.33 kPa, x2 = 0.296 | 0.537 | 0.504 | 0.476
101.33 kPa, x2 = 0.3957 | 0.562 | 0.528 | 0.498
101.33 kPa, x2 = 0.4987 | 0.594 | 0.554 | 0.52
101.33 kPa, x2 = 0.5982 | 0.625 | 0.591 | 0.548
101.33 kPa, x2 = 0.7002 | 0.68 | 0.632 | 0.594
101.33 kPa, x2 = 0.8051 | 0.748 | 0.694 | 0.645
101.33 kPa, x2 = 0.9024 | 0.847 | 0.781 | 0.724
101.33 kPa, x2 = 0.9503 | 0.898 | 0.826 | 0.762

CCN(CC)CC + CCCCCC
viscosity [mPa·s], 101.33 kPa
Settings | x1 = 0.1076 | x1 = 0.2064 | x1 = 0.4089 | x1 = 0.5106 | x1 = 0.6081 | x1 = 0.804 | x1 = 0.9018
303.15 K | 0.2744 | 0.276 | 0.2838 | 0.2911 | 0.3002 | 0.3248 | 0.3408
313.15 K | 0.2432 | 0.2489 | 0.2626 | 0.271 | 0.2799 | 0.3004 | 0.3125

ClC(Cl)(Cl)Cl + CCCCOCCO
298.15 K, 101.3 kPa
Settings | viscosity [mPa·s]
x2 = 0.0054 | 0.913
x2 = 0.0106 | 0.919
x2 = 0.0262 | 0.918
x2 = 0.0778 | 0.968
x2 = 0.1296 | 1.035
x2 = 0.1914 | 1.125
x2 = 0.2889 | 1.283
x2 = 0.3826 | 1.47
x2 = 0.4809 | 1.687
x2 = 0.5388 | 1.81
x2 = 0.5933 | 1.935
x2 = 0.6963 | 2.162
x2 = 0.7923 | 2.385
x2 = 0.8841 | 2.589
x2 = 0.9631 | 2.759

[Br-].[Li+] + CO
101 kPa
Settings | viscosity [mPa·s]
293.15 K, x2 = 0.7334 | 86.34
293.15 K, x2 = 0.7699 | 40.18
293.15 K, x2 = 0.804 | 20.18
293.15 K, x2 = 0.8367 | 10.43
293.15 K, x2 = 0.8645 | 6.343
293.15 K, x2 = 0.8908 | 4.223
303.15 K, x2 = 0.6926 | 102.1
303.15 K, x2 = 0.7326 | 55.05
303.15 K, x2 = 0.7698 | 28.35
303.15 K, x2 = 0.8039 | 15.05
303.15 K, x2 = 0.836 | 8.725
303.15 K, x2 = 0.8642 | 5.422
303.15 K, x2 = 0.8908 | 3.697
313.15 K, x2 = 0.6913 | 65.32
313.15 K, x2 = 0.7324 | 35.2
313.15 K, x2 = 0.7697 | 19.67
313.15 K, x2 = 0.8039 | 11.37
313.15 K, x2 = 0.836 | 7.147
313.15 K, x2 = 0.8644 | 4.634
313.15 K, x2 = 0.8908 | 3.566
323.15 K, x2 = 0.691 | 42.31
323.15 K, x2 = 0.7323 | 24.55
323.15 K, x2 = 0.7696 | 14.41
323.15 K, x2 = 0.8039 | 9.136
323.15 K, x2 = 0.836 | 5.438
323.15 K, x2 = 0.8644 | 3.976
